Data: ChEMBL document CHEMBL1201862, “PubChem BioAssay data set” (2004)
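Five compound concentrations were applied to cells in 96-well plates for 48 hours; endpoints were derived by simple linear interpolation of the resulting dose-response curve. At the GI50, growth is halved.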 Calls of active or inactive are those of the source. Cut-off read from the data, not from the text of the source: active = GI50 up to about 1.1 µM and inactive = higher.

Legend:
Assay in all cases: NCI-60 cell line screen, 48 h
HCT-116 = tested on: HCT-116
Malme-3M = tested on: Malme-3M
SW-620 = tested on: SW-620
A549 = tested on: A549
KM-20L2 = tested on: KM-20L2
RPMI-8226 = tested on: RPMI-8226
HCC 2998 = tested on: HCC 2998
SN12C = tested on: SN12C
OVCAR-5 = tested on: OVCAR-5
NCI-H522 = tested on: NCI-H522
K562 = tested on: K562
U-251 = tested on: U-251
UO-31 = tested on: UO-31
HOP-92 = tested on: HOP-92
LOX IMVI = tested on: LOX IMVI
EKVX = tested on: EKVX
Hs-578T = tested on: Hs-578T
MCF7 = tested on: MCF7
MDA-N = tested on: MDA-N
DU-145 = tested on: DU-145

Measured: GI50

CC(=O)Nc1ccc(C2C(C(=O)Nc3ccccc3)=C(C)NC(C)=C2C(=O)Nc2ccccc2)cc1
inactive: HCT-116 > 91 µM | Malme-3M > 100 µM | SW-620 98.4 µM | A549 > 100 µM | KM-20L2 > 100 µM | RPMI-8226 > 100 µM | HCC 2998 > 100 µM | SN12C > 100 µM | OVCAR-5 > 100 µM | NCI-H522 64 µM | K562 > 100 µM | U-251 > 100 µM | UO-31 > 100 µM | HOP-92 > 100 µM | LOX IMVI > 79.6 µM | EKVX > 100 µM

O=C1C2C(C(=O)N1c1ccccc1)C1c3ccccc3C2C2C(=O)N(c3ccccc3)C(=O)C21 (stereo not given)
inactive: HCT-116 3.12 µM | Malme-3M 3.9 µM | SW-620 6.12 µM | A549 5.86 µM | KM-20L2 18.2 µM | RPMI-8226 4.39 µM | HCC 2998 3.67 µM | SN12C 5.48 µM | OVCAR-5 15.1 µM | NCI-H522 2.46 µM | K562 3.42 µM | U-251 2.82 µM | UO-31 12.7 µM | HOP-92 6.82 µM | LOX IMVI 10.5 µM | EKVX > 100 µM

O=S1OC2(c3ccccc3-c3ccccc32)c2ccccc21 (stereo not given)
inactive: HCT-116 > 100 µM | Malme-3M > 100 µM | SW-620 > 100 µM | A549 > 100 µM | KM-20L2 > 100 µM | RPMI-8226 > 100 µM | HCC 2998 > 100 µM | SN12C > 100 µM | OVCAR-5 > 100 µM | NCI-H522 > 100 µM | K562 > 100 µM | U-251 > 100 µM | UO-31 > 100 µM | LOX IMVI > 100 µM | EKVX > 100 µM

CCOC(=O)c1csc(CCCCCCc2nc(C(=O)OCC)cs2)n1
inactive: HCT-116 35.9 µM | Malme-3M > 74.5 µM | SW-620 > 41.7 µM | A549 > 45.6 µM | KM-20L2 > 100 µM | RPMI-8226 > 48.8 µM | HCC 2998 > 100 µM | SN12C > 82.6 µM | OVCAR-5 > 100 µM | NCI-H522 > 100 µM | K562 > 40.1 µM | U-251 24 µM | UO-31 > 100 µM | HOP-92 > 58.2 µM | LOX IMVI 32.4 µM | EKVX > 86.7 µM

O=C1C2=C(c3ccccc31)C(c1ccccc1Cl)NC(S)=N2 (stereo not given)
inactive: HCT-116 44.9 µM | Malme-3M 39 µM | SW-620 74.5 µM | A549 85.1 µM | KM-20L2 74.3 µM | RPMI-8226 37.4 µM | HCC 2998 > 100 µM | SN12C 41.3 µM | OVCAR-5 > 100 µM | NCI-H522 31.8 µM | K562 49.2 µM | U-251 77.6 µM | UO-31 30.6 µM | HOP-92 16.5 µM | EKVX > 100 µM

CC(CCOc1c2ccoc2cc2oc(=O)ccc12)C1=CC(=O)C(C)(C)O1 (stereo not given)
inactive: HCT-116 > 100 µM | Hs-578T > 100 µM | MCF7 > 100 µM | Malme-3M > 100 µM | SW-620 > 100 µM | A549 > 100 µM | RPMI-8226 > 100 µM | MDA-N > 100 µM | HCC 2998 > 100 µM | SN12C > 100 µM | OVCAR-5 > 100 µM | NCI-H522 13.9 µM | DU-145 > 100 µM | K562 > 100 µM | U-251 > 100 µM | UO-31 > 100 µM | HOP-92 > 100 µM | LOX IMVI > 100 µM | EKVX > 100 µM

CN(C)CCCNC(=O)c1c(O)c2ccccc2n(C)c1=O
inactive: HCT-116 44.1 µM | Hs-578T > 100 µM | MCF7 43.9 µM | Malme-3M 72.4 µM | SW-620 54 µM | A549 82.2 µM | RPMI-8226 73.8 µM | MDA-N 64.1 µM | HCC 2998 82.2 µM | SN12C 67.1 µM | OVCAR-5 63 µM | NCI-H522 61.8 µM | DU-145 > 100 µM | K562 79.3 µM | U-251 39.5 µM | UO-31 9.27 µM | HOP-92 14.3 µM | LOX IMVI 30.6 µM | EKVX > 100 µM

CCCC(CCC)C(=O)O [VALPROIC ACID]
inactive: HCT-116 9730 µM | Hs-578T 12100 µM | MCF7 6580 µM | Malme-3M 4400 µM | SW-620 8530 µM | A549 9060 µM | RPMI-8226 4070 µM | MDA-N > 100 µM | HCC 2998 5710 µM | SN12C > 100 µM | OVCAR-5 > 100 µM | NCI-H522 3240 µM | DU-145 10200 µM | K562 6810 µM | U-251 8020 µM | UO-31 6280 µM | HOP-92 9380 µM | LOX IMVI 6280 µM | EKVX > 100 µM
